Data on one compound can be found in patent US10905692B2, “Combination therapy for treating malignancies” (Agios Pharmaceuticals, Inc., priority 2015, dated 2021).

The nature of this data set: blood bilirubin in subjects with a UGT1A1 mutation receiving COMPOUND 1. The class given is in vivo, human. The text has this:
All toxicity ≥Grade 3 not due to underlying AML or complications of the disease or myelosuppressive treatment, with the exception of ≥Grade 3 blood bilirubin increases in subjects with a UGT1A1 mutation receiving COMPOUND 1.

For the compound `CC(C)(O)CNc1nc(Nc2ccnc(C(F)(F)F)c2)nc(-c2cccc(C(F)(F)F)n2)n1` [COMPOUND 1, 2-methyl-1-[(4-[6-(trifluoromethyl)pyridin-2-yl]-6-{[2-(trifluoromethyl)pyridin-4-yl]amino}-1,3,5-triazin-2-yl)amino]propan-2-ol], the blood bilirubin increases entry is given as “isolated blood bilirubin increases have been seen”.
